Laboratory results taken from patent publication US20230212549A1, “COMPOUNDS COMPRISING A […] LIGAND AND USE THEREOF” (priority 2021, published 2023).
Numbered stars: 1 amine (or outer) side, 2 acyl side, 3 side chain; on linkers, the order of the positions; unused ones are H or OH. Bridge positions count the residues as written; N and C are the ends. Square brackets hold non-standard residues; d marks the D form. Peptide text beside a SMILES is read from it. * marks the point of attachment. X13 = O=C(O)CN1CCN(CC(=O)O)CCN(CC(=O)N2CCN(Cc3cc(C[*:1])cc(C[*:2])c3)CC2)CCN(CC(=O)O)CC1; X7 = O=C(CCP(=O)(O)CN1CCN(CP(=O)(O)CO)CCN(CP(=O)(O)CO)CC1)NCCSCc1cc(C[*:1])cc(C[*:2])c1; DOTA = O=C(O)CN1CCN(CC(=O)O)CCN(CC(=O)*)CCN(CC(=O)O)CC1; Bip = N[C@@H](Cc1ccc(-c2ccccc2)cc1)C(=O)O; Pro(4S-NH2) = N[C@@H]1CN[C@H](C(=O)O)C1; Met(O2) = CS(=O)(=O)CC[C@H](N)C(=O)O; mXylylene = c1cc(C[*:1])cc(C[*:2])c1; PEG6 = NCCOCCOCCOCCOCCOCCOCCC(=O)O; NMeF = CN[C@@H](Cc1ccccc1)C(=O)O; Nle = CCCC[C@H](N)C(=O)O; Nphe = O=C(O)CNCc1ccccc1; X2 = NCCNCC(CNCCN)C(=O)*; Hexanoyl = CCCCCC(=O)*; Nleu = CC(C)CNCC(=O)O; Aib = CC(C)(N)C(=O)O; Inp = O=C(O)C1CCNCC1; Ahx = NCCCCCC(=O)O; βAla = NCCC(=O)O

Assays:
[1] = molecular target: Human recombinant FAP (Homo sapiens, UniProt Q12884); assay: FRET-based FAP protease activity assay; format: biochemical; parameters: purchased R&D systems 3715-SE
Human recombinant FAP, sequence (Q12884 whole entry): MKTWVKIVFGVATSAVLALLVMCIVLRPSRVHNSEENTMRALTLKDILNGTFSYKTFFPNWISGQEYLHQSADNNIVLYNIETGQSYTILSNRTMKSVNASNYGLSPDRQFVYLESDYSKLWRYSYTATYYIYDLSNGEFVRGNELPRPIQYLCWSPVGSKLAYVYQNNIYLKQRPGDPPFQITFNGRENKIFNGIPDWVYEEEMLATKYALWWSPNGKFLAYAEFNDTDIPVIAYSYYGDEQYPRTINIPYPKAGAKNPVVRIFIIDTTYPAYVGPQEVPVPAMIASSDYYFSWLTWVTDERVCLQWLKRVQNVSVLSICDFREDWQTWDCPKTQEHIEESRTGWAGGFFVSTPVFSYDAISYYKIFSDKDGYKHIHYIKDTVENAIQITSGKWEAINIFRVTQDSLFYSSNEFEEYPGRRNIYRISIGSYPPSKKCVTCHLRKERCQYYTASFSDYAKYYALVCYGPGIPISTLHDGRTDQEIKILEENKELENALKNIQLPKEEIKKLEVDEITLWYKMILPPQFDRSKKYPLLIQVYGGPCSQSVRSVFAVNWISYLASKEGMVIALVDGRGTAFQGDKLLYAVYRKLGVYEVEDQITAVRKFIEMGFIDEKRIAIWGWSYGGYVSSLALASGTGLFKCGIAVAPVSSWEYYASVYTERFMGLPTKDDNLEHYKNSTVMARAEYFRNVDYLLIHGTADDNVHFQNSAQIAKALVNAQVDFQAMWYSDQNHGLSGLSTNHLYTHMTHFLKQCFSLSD

[2] = molecular target: T1, FAP-expressing human WI-38 fibroblasts (Homo sapiens, UniProt Q12884); assay: Competitive FACS binding assay
T1 construct: FAP-expressing human WI-38 fibroblasts (ECACC) were cultured in EMEM; host or cells: WI-38 human fibroblasts
T1 sequence (Q12884 whole entry): as above
Procedure: Cells were analyzed in an Attune NxT flow cytometer. […] […].
Cells were analyzed in an Attune NxT flow cytometer. […]

[3] = pIC50 Category (Activity), FRET-based FAP protease activity assay, recombinant human FAP, 37° C.
[4] = pIC50 Category (activity), Recombinant human FAP
[5] = pIC50 Category (Activity), FRET-peptide substrate, 37° C.

Structure (SMILES)	IC50 [1, 3] [nM]	IC50 [2] [nM]	also measured
CCCCCC(=O)N[C@H]1CSCc2cc(CSCCNC(=O)CCP(=O)(O)CN3CCN(CP(=O)(O)CO)CCN(CP(=O)(O)CO)CC3)cc(c2)CSC[C@@H](C(=O)O)NC(=O)[C@H](Cc2ccccc2)NC(=O)[C@H](CCC(=O)O)NC(=O)[C@H]([C@@H](C)O)NC(=O)[C@@H]2CCCN2C(=O)[C@@H]2CCCN2C1=O [3BP-4816, Hex-[C(tMeBn(GaNOPO-AET))-PPTEFC]-OH] (Hexanoyl-CPPTEFC-OH; linker 1-7 via X7)	–	–	pIC50 Category (activity) ([1]; Recombinant human FAP): B (category B for pIC50 values between 7.1 and 8.0); pIC50 Category (FACS) ([2]; FAP-expressing human WI-38 fibroblasts): B (category B for pIC50 values between 7.1 and 8.0)
CCCCCC(=O)N[C@H]1CSCc2cccc(c2)CSC[C@@H](C(N)=O)NC(=O)[C@H](Cc2ccccc2)NC(=O)[C@H](CCS(C)(=O)=O)NC(=O)[C@H]([C@@H](C)O)NC(=O)[C@@H]2CCCN2C(=O)[C@@H]2CCCN2C1=O [3BP-3356, Hex-[Cys(3MeBn)-Pro-Pro-Thr-Moo-Phe-Cys]-NH2] (Hexanoyl-CPPT[Met(O2)]FC-NH2; linker 1-7 via mXylylene)	> 1000	> 1000	–
CCCCCC(=O)N[C@H]1CSCc2cccc(c2)CSC[C@@H](C(N)=O)NC(=O)[C@H](Cc2ccccc2)NC(=O)[C@H](CCC(=O)O)NC(=O)[C@H]([C@@H](C)O)NC(=O)[C@@H]2C[C@H](N)CN2C(=O)[C@@H]2CCCN2C1=O [3BP-3367, Hex-[Cys(3MeBn)-Pro-Tap-Thr-Glu-Phe-Cys]-NH2] (Hexanoyl-CP[Pro(4S-NH2)]TEFC-NH2; linker 1-7 via mXylylene)	100 to 794	> 1000	–
C[C@@H](O)[C@@H]1NC(=O)[C@@H]2CCCN2C(=O)[C@@H]2CCCN2C(=O)[C@@H](NC(=O)CCCN)CSCc2cccc(c2)CSC[C@@H](C(N)=O)NC(=O)[C@H](Cc2ccccc2)NC(=O)[C@H](CCC(N)=O)NC1=O [3BP-3761, H-Gab-[Cys(3MeBn)-Pro-Pro-Thr-Gln-Phe-Cys]-NH2]	> 1000	> 1000	–
CCCCCC(=O)N[C@H]1CSCc2cc(cc(CN3CCN(C(=O)CN4CCN(CC(=O)O)CCN(CC(=O)O)CCN(CC(=O)O)CC4)CC3)c2)CSC[C@@H](C(=O)N[C@@H](CC(=O)O)C(N)=O)NC(=O)[C@H](Cc2ccccc2)NC(=O)[C@H](CCC(N)=O)NC(=O)[C@H](C)NC(=O)[C@@H]2CCCN2C(=O)[C@@H]2CCCN2C1=O [3BP-3745, Hex-[Cys(tMeBn(DOTA-PP))-Pro-Pro-Ala-Gln-Phe-Cys]-Asp-NH2] (Hexanoyl-CPPAQFCD-NH2; linker 1-7 via X13)	100 to 794	100 to 794	–
CCCCCC(=O)N[C@H]1CSCc2cccc(c2)CSC[C@@H](C(N)=O)NC(=O)[C@H](Cc2ccc(-c3ccccc3)cc2)NC(=O)[C@H](CCC(=O)O)NC(=O)[C@H]([C@@H](C)O)NC(=O)[C@@H]2CCCN2C(=O)[C@@H]2CCCN2C1=O [3BP-3363, Hex-[Cys(3MeBn)-Pro-Pro-Thr-Glu-Bip-Cys]-NH2] (Hexanoyl-CPPTE[Bip]C-NH2; linker 1-7 via mXylylene)	> 1000	> 1000	–
CCCCCC(=O)N[C@H]1CSCc2cccc(c2)CSC[C@@H](C(N)=O)NC(=O)CN(Cc2ccccc2)C(=O)[C@H](CCC(=O)O)NC(=O)[C@H]([C@@H](C)O)NC(=O)[C@@H]2CCCN2C(=O)[C@@H]2CCCN2C1=O [3BP-3360, Hex-[Cys(3MeBn)-Pro-Pro-Thr-Glu-Nphe-Cys]-NH2] (Hexanoyl-CPPTE[Nphe]C-NH2; linker 1-7 via mXylylene)	> 1000	> 1000	–
CCCCCC(=O)N[C@H]1CSCc2cc(cc(CN3CCN(C(=O)CN4CCN(CC(=O)O)CCN(CC(=O)O)CCN(CC(=O)O)CC4)CC3)c2)CSC[C@@H](C(=O)N[C@@H](CC(=O)O)C(N)=O)NC(=O)[C@@H]2CCCN2C(=O)[C@@H]2CCCN2C(=O)[C@H]([C@@H](C)O)NC(=O)[C@H](CCC(N)=O)NC(=O)[C@H](Cc2ccccc2)NC1=O [3BP-3855, Hex-[Cys(tMeBn(DOTA-PP))-Phe-Gln-Thr-Pro-Pro-Cys]-Asp-NH2] (Hexanoyl-CFQTPPCD-NH2; linker 1-7 via X13)	> 1000	> 1000	–

Now from value to molecule, other results behind:

IC50 [1, 3] [nM]	IC50 [2] [nM]	Structure (SMILES)	also measured
10 to 79.4	10 to 79.4	CSCC[C@H](NC(C)=O)C(=O)N[C@H]1CSCc2cccc(c2)CSC[C@@H](C(=O)N[C@@H](CC(=O)O)C(=O)N[C@@H](Cc2c[nH]cn2)C(=O)N[C@@H](Cc2ccccc2)C(=O)N[C@@H](CCCNC(=N)N)C(=O)N[C@@H](CC(=O)O)C(N)=O)NC(=O)[C@H](Cc2ccccc2)NC(=O)[C@H](CCC(=O)O)NC(=O)[C@H]([C@@H](C)O)NC(=O)[C@@H]2CCCN2C(=O)C(C)(C)NC1=O [3BP-3204, Ac-Met-[Cys(3MeBn)-Aib-Pro-Thr-Glu-Phe-Cys]-Asp-His-Phe-Arg-Asp-NH2] (Ac-MC[Aib]PTEFCDHFRD-NH2; linker 2-8 via mXylylene)	–
> 1000	> 1000	CCCCCC(=O)N[C@H]1CSCc2cccc(c2)CSC[C@@H](C(N)=O)NC(=O)[C@H](Cc2ccccc2)NC(=O)[C@H](CCC(N)=O)NC(=O)[C@H]([C@@H](C)O)NC(=O)[C@@H]2CCCN2C(=O)CN(CC(C)C)C1=O [3BP-3749, Hex-[Cys(3MeBn)-Nleu-Pro-Thr-Gln-Phe-Cys]-NH2] (Hexanoyl-C[Nleu]PTQFC-NH2; linker 1-7 via mXylylene)	–
–	100 to 794	CCCC[C@H](NC(=O)CCNC(=O)CCOCCOCCOCCOCCOCCOCCNC(=O)C(CNCCN)CNCCN)C(=O)N[C@H]1CSCc2cccc(c2)CSC[C@@H](C(=O)O)NC(=O)[C@H](Cc2ccccc2)NC(=O)[C@H](CCC(=O)O)NC(=O)[C@H]([C@@H](C)O)NC(=O)[C@@H]2CCCN2C(=O)[C@@H]2CCCN2C1=O [3BP-4779, N4Ac-PEG6-Bal-Nle-[C(3MeBn)-PPTEFC]-OH] ({X2-PEG6-βAla}-[Nle]CPPTEFC-OH; linker 2-8 via mXylylene)	IC50 [1, 4]: > 1000 nM
100 to 794	100 to 794	C[C@@H](O)[C@@H]1NC(=O)[C@@H]2CCCN2C(=O)[C@@H]2CCCN2C(=O)[C@@H](NC(=O)C2CCN(C(=O)CN3CCN(CC(=O)O)CCN(CC(=O)O)CCN(CC(=O)O)CC3)CC2)CSCc2cccc(c2)CSC[C@@H](C(=O)N[C@@H](CC(=O)O)C(=O)N[C@@H](Cc2c[nH]cn2)C(=O)N(C)[C@@H](Cc2ccccc2)C(=O)N[C@@H](CCCNC(=N)N)C(=O)N[C@@H](CC(=O)O)C(N)=O)NC(=O)[C@H](Cc2ccccc2)NC(=O)[C@H](CCC(=O)O)NC1=O [3BP-3265, DOTA-Inp-[Cys(3MeBn)-Pro-Pro-Thr-Glu-Phe-Cys]-Asp-His-Nmf-Arg-Asp-NH2] ({DOTA-Inp}-CPPTEFCDH[NMeF]RD-NH2; linker 1-7 via mXylylene)	–
100 to 794	100 to 794	C[C@@H](O)[C@@H]1NC(=O)[C@@H]2CCCN2C(=O)[C@@H]2CCCN2C(=O)[C@@H](NC(=O)CCCC(=O)O)CSCc2cccc(c2)CSC[C@@H](C(N)=O)NC(=O)[C@H](Cc2ccccc2)NC(=O)[C@H](CCC(N)=O)NC1=O [3BP-3765, HO-Glutar-[Cys(3MeBn)-Pro-Pro-Thr-Gln-Phe-Cys]-NH2]	–
–	< 10	CCCCCC(=O)N[C@H]1CSCc2cc(CSCCNC(=O)CN3CCN(CC(=O)O)CCN(CC(N)=O)CCN(CC(=O)O)CC3)cc(c2)CSCC(C(=O)O)NC(=O)[C@H](Cc2ccccc2)NC(=O)[C@H](CCC(N)=O)NC(=O)[C@H]([C@@H](C)O)NC(=O)[C@@H]2CCCN2C(=O)[C@@H]2CCCN2C1=O (stereo partly drawn) [3BP-5288, Hex-[Cys(tMeBn(LSC-AET))-Pro-Pro-Thr-Gln-Phe-Cys]-OH]	IC50 [1, 4]: < 10 nM
–	< 10	CCCCNC(=O)N[C@H]1CSCc2cccc(c2)CSC[C@@H](C(=O)N[C@@H](CCCCNC(=O)C(CNCCN)CNCCN)CC(=O)O)NC(=O)[C@H](Cc2ccccc2)NC(=O)[C@H](CCC(N)=O)NC(=O)[C@H]([C@@H](C)O)NC(=O)[C@@H]2CCCN2C(=O)[C@@H]2CCCN2C1=O [3BP-4589, nBu-CAyl-[Cys(3MeBn)-Pro-Pro-Thr-Gln-Phe-Cys]-Bhk(N4Ac)—OH]	IC50 [1, 5]: < 10 nM
100 to 794	100 to 794	C[C@@H](O)[C@@H]1NC(=O)[C@@H]2CCCN2C(=O)[C@@H]2CCCN2C(=O)[C@@H](NC(=O)CCCCCNC(=O)CN2CCN(CC(=O)O)CCN(CC(=O)O)CCN(CC(=O)O)CC2)CSCc2cccc(c2)CSC[C@@H](C(=O)N[C@@H](CC(=O)O)C(=O)N[C@@H](Cc2c[nH]cn2)C(=O)N(C)[C@@H](Cc2ccccc2)C(=O)N[C@@H](CCCNC(=N)N)C(=O)N[C@@H](CC(=O)O)C(N)=O)NC(=O)[C@H](Cc2ccccc2)NC(=O)[C@H](CCC(=O)O)NC1=O [3BP-3266, DOTA-Ahx-[Cys(3MeBn)-Pro-Pro-Thr-Glu-Phe-Cys]-Asp-His-Nmf-Arg-Asp-NH2] ({DOTA-Ahx}-CPPTEFCDH[NMeF]RD-NH2; linker 1-7 via mXylylene)	–
–	10 to 79.4	C#CCCC(=O)N[C@H]1CSCc2cc(CSCCNC(=O)CN3CCN(CC(=O)O)CCN(CC(=O)O)CCN(CC(=O)O)CC3)cc(c2)CSC[C@@H](C(=O)O)NC(=O)[C@H](Cc2ccccc2)NC(=O)[C@H](CCC(N)=O)NC(=O)[C@H]([C@@H](C)O)NC(=O)[C@@H]2CCCN2C(=O)[C@@H]2CCCN2C1=O [3BP-3912, Pyn-[Cys(tMeBn(DOTA-AET))-Pro-Pro-Thr-Gln-Phe-Cys]-OH]	IC50 [1, 5]: 100 to 794 nM
–	10 to 79.4	C[C@@H](O)[C@@H]1NC(=O)[C@@H]2CCCN2C(=O)[C@@H]2CCCN2C(=O)[C@@H](NC(=O)[C@@H]2CCCO2)CSCc2cc(CSCCNC(=O)CN3CCN(CC(=O)O)CCN(CC(=O)O)CCN(CC(=O)O)CC3)cc(c2)CSC[C@@H](C(=O)O)NC(=O)[C@H](Cc2ccccc2)NC(=O)[C@H](CCC(N)=O)NC1=O [3BP-3936, Sth-[Cys(tMeBn(DOTA-AET))-Pro-Pro-Thr-Gln-Phe-Cys]-OH]	IC50 [1, 5]: 10 to 79.4 nM
–	< 10	CCCOCC(=O)N[C@H]1CSCc2cc(CSCCNC(=O)CN3CCN(CC(=O)O)CCN(CC(=O)O)CCN(CC(=O)O)CC3)cc(c2)CSC[C@@H](C(=O)O)NC(=O)[C@H](Cc2ccccc2)NC(=O)[C@H](CCC(N)=O)NC(=O)[C@H]([C@@H](C)O)NC(=O)[C@@H]2CCCN2C(=O)[C@@H]2CCCN2C1=O [3BP-3938, PrOAc-[Cys(tMeBn(DOTA-AET))-Pro-Pro-Thr-Gln-Phe-Cys]-OH]	IC50 [1, 5]: < 10 nM
